Where two headings read alike, the source gives them in different places. Where a SMILES comes first, the peptide text is derived from it. [ ]: non-standard residue; d: D form. The star is where a group is joined. Sta = CC(C)C[C@H](N)[C@@H](O)CC(=O)O; Isovaleryl = CC(C)CC(=O)*
Assays:
PvPM4 = PvPM4 (Plasmodium vivax, UniProt O60989); assay: biochemical
Protocol: (§1) Dissociation constants were determined as previously described.
(§2) Besides PbPM4, the cloning, expression and purification of recombinant human FV plasmepsins, including PfPM1, 2 and 4, PoPM4, PvPM4 and PmPM4, and hcatD were performed according to experimental procedures described in previous reports. Briefly, genes encoding N-terminally truncated semi-pro-enzymes were cloned from genomic DNA, or intra-erythrocyte stage cDNA library of Plasmodium spp. (e.g., in the case of PfPM1), and inserted to pET expression vectors (EMD Millipore). Protein expression, inclusion body preparation and in vitro protein refolding were performed as described above for PbPM4. Proteins were purified using anion exchange chromatography.
(§3) The enzymes were prepared for kinetic assays: purified proPbPM4 was pre-incubated in 100 mM sodium citrate, pH 5.0, at 37°C for 5 min; purified mature PfPM1 was pre-incubated in 100 mM sodium citrate, pH 5.5, at 37°C for 3 min; all the other plasmepsins were pre-incubated in 100 mM sodium formate, pH 4.5, at 37°C for 5 min to convert zymogen to mature enzyme before the addition of substrates. Pre-incubation of hcatD was carried out in 200 mM sodium formate, pH 3.7, at 37°C for 5 min. […] The concentration of compound 1 was determined by amino acid analysis. Dissociation constants (Ki) were determined as described above.

PfPM1 = PfPM1 (Plasmodium falciparum, UniProt P39898); assay: biochemical
Chain of PfPM1 (P39898 124-452): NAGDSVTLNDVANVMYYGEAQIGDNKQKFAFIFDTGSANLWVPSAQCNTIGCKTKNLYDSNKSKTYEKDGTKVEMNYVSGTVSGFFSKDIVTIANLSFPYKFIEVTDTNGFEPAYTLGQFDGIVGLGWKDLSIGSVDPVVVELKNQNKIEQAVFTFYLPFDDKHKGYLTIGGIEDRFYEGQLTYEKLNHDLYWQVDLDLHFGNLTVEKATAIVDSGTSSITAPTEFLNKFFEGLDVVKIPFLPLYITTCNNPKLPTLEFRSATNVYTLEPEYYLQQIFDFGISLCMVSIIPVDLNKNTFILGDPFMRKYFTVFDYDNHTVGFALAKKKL
Protocol: as §1, §2, §3

PbPM4 [1] = molecular target: T1, PbPM4 (Plasmodium berghei, UniProt O76965); assay: Inhibition of mature PbPM4, dissociation constants (Ki) from initial cleavage velocities of a chromogenic peptide substrate; format: biochemical
T1 sequence (O76965 entry or part of it): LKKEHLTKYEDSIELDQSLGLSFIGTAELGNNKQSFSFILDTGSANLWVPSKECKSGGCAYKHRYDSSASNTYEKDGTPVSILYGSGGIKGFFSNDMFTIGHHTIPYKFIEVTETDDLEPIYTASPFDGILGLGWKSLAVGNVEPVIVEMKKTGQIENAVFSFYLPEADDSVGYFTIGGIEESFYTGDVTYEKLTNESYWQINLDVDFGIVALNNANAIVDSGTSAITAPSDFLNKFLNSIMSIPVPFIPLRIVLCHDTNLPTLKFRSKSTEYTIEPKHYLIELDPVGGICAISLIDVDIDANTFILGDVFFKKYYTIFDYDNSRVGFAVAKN
Protocol: (§4) Chromogenic peptide substrates were dissolved in a solution containing 20% dimethyl sulfoxide (DMSO), 10% formic acid, and 70% distilled deionized water to generate stock solutions. Inhibitor stock solutions were prepared in 100% DMSO. The concentrations of the stock solutions were determined by amino acid analysis.
(§5) Kinetic assays were set up in 500 mM sodium citrate, pH 5.0 at 37°C with a 5-min pre-equilibrium time with buffer. To study kinetics of the zymogen form, assays were set up in 500 mM sodium citrate, pH 5.5 at 37°C with a 5-min pre-equilibrium time. All enzymatic reactions were carried out at 37°C.
as §1
The enzymes were prepared for kinetic assays: purified proPbPM4 was pre-incubated in 100 mM sodium citrate, pH 5.0, at 37°C for 5 min; purified mature PfPM1 was pre-incubated in 100 mM sodium citrate, pH 5.5, at 37°C for 3 min; all the other plasmepsins were pre-incubated in 100 mM sodium formate, pH 4.5, at 37°C for 5 min to convert zymogen to mature enzyme before the addition of substrates. Pre-incubation of hcatD was carried out in 200 mM sodium formate, pH 3.7, at 37°C for 5 min. Compound 1 was dissolved in 100% DMSO, and filtered through a 0.45 μm Costar cellulose acetate tube filter by centrifugation at 20,000 g, room temperature for 5 min to remove any particulate. The concentration of compound 1 was determined by amino acid analysis. Dissociation constants (Ki) were determined as described above.

[2] = molecular target: T2, human cathepsin D (hcatD) (Homo sapiens, UniProt P07339); assay: Inhibition of human cathepsin D, dissociation constants (Ki); format: biochemical; conditions: pre-incubated in 200 mM sodium formate pH 3.7, 37°C, 5 min; read-out: Dissociation Constant (K i) hCatD
T2 construct: made in house
T2 sequence (P07339 65-412): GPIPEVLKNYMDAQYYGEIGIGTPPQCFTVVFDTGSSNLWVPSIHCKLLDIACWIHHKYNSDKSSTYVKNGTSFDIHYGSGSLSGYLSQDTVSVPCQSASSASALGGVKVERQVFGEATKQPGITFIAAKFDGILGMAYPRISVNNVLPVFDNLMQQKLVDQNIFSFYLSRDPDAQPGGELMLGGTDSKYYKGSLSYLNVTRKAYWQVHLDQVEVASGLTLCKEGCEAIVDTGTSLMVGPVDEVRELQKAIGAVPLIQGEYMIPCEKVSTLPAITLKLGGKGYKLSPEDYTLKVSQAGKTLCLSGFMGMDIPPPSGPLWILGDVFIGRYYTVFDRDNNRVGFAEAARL
Protocol: as §1
Proteins were purified using anion exchange chromatography.
Dissociation constants (Ki) were determined as described above.

PmPM4 = conditions: read-out: Dissociation Constant (K i) PmPM4; cited from earlier work
PoPM4 = conditions: read-out: Dissociation Constant (K i) PoPM4; cited from earlier work
PbPM4 [3] = molecular target: T1, PbPM4; assay: Kinetic analysis of cleavage of chromogenic peptide substrates by mature PbPM4; format: biochemical; conditions: sodium citrate pH 5.0, 37°C
Protocol: as §4, §5
The substrate hydrolysis was analyzed by spectroscopy and defined as the decrease of the average absorbance between 284–324 nm. Pre-equilibrated enzyme was mixed with substrate at least six different concentrations (μM). The initial cleavage velocities (AU/sec) of these reactions were immediately measured on a Cary 50 Bio UV-Visible spectrophotometer. The initial cleavage rates (M/sec) were converted from the observed velocities (AU/sec) by dividing the observed velocities by the total absorbance changes upon complete enzymatic digestion of the substrate of known concentrations (i.e., AU/M).
The total concentration of active enzyme, [E]tot, was determined by titrating PbPM4 enzyme with the tight binding, competitive, aspartic proteinase inhibitor pepstatin A. A constant amount of pre-equilibrated enzyme was mixed either with 100 μM of the peptide substrate Lys-Pro-Ile-Leu-Phe*Nph-Arg-Leu or with both 100 μM of substrate and pepstatin A at a series of different concentrations. The initial cleavage rates of the substrate at different inhibitor concentrations were immediately measured afterwards using a Cary 50 Bio UV-Visible spectrophotometer.

Chain of PvPM4 (O60989 122-450 limits assumed): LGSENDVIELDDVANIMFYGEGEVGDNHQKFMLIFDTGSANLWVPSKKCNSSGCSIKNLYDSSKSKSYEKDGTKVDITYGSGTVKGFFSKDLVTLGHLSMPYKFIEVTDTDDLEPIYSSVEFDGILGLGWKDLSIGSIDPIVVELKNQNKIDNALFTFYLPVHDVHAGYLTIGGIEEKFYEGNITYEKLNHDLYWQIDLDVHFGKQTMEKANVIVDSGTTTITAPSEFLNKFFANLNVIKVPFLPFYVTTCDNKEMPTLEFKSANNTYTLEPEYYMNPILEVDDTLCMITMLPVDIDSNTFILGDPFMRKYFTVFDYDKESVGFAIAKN

N=C(N)NCCC[C@H](NC[C@H](Cc1ccccc1)NC(=O)[C@H](CCC(=O)O)NC(=O)[C@H](Cc1ccc(O)cc1)NC(=O)[C@@H]1CCCN1C(=O)[C@@H](N)CCCCN)C(=O)N[C@@H](CCC(N)=O)C(=O)N[C@@H](Cc1ccccc1)C(=O)O [Compound 1, KPYEFΨRQF]
Ki (PvPM4): 426 ± 44 nM | Ki (PfPM1): > 100000 nM | selectivity to PbPM4 and the four plasmepsin 4 homologs of human malaria parasites versus hcatD (PbPM4 [1]; from K i values): > 10 fold | Ki (PbPM4 [1]; proPbPM4 pre-incubated in 100 mM sodium citrate pH 5.0, 37°C, 5 min, read-out: Dissociation Constant (K i) PbPM4): 3900 nM | Ki [2]: 41000 nM

CC(C)C[C@H](NC(=O)[C@@H]1CCCN1C(=O)[C@@H](N)CCCCN)C(=O)N[C@@H](CCC(=O)O)C(=O)N[C@H](CN[C@@H](Cc1ccccc1)C(=O)N[C@@H](CCCNC(=N)N)C(=O)N[C@H](C(=O)O)C(C)C)Cc1ccccc1 [Compound 5, KPLEFΨFRV]
Ki (PmPM4): 3.7 ± 0.6 nM | Ki (PoPM4): 3.2 ± 0.5 nM

CC(C)C[C@@H](CN[C@@H](C)C(=O)N[C@@H](Cc1c[nH]c2ccccc12)C(=O)N[C@H](C(=O)O)[C@@H](C)O)NC(=O)[C@H](CCC(=O)O)NC(=O)[C@H](Cc1ccccc1)NC(=O)[C@@H]1CCCN1C(=O)[C@@H](N)CCCCN [Compound 7, KPFELΨAWT]
Ki (PmPM4): 9000 nM | Ki (PoPM4): > 20000 nM

CCCC[C@@H](CN[C@@H](CC(C)C)C(=O)N[C@@H](CCC(N)=O)C(=O)N[C@H](C(=O)O)[C@@H](C)CC)NC(=O)[C@H](CO)NC(=O)[C@H](CCCC)NC(=O)[C@@H]1CCCN1C(=O)[C@@H](N)CCCCN [Compound 3, KPnLSnLΨLQI]
Ki (PmPM4): 160 ± 26 nM | Ki (PoPM4): 187 ± 29 nM

CC(C)CC(=O)N[C@H](C(=O)N[C@H](C(=O)N[C@@H](CC(C)C)[C@@H](O)CC(=O)N[C@@H](C)C(=O)N[C@@H](CC(C)C)[C@@H](O)CC(=O)O)C(C)C)C(C)C [pepstatin A, reference compound] (Isovaleryl-VV[Sta]A[Sta]-OH)
Ki (PbPM4 [1]; mature PbPM4, sodium citrate pH 5.0, 37°C, 5 min pre-equilibrium, read-out: K i): 0.11 ± 0.02 nM

Lys-Pro-Ile-Leu-Phe*Nph-Arg-Leu [K-P-I-L-F*Nph-R-L]
K m (PbPM4 [3]): 2.1 ± 0.2 µM | k cat (PbPM4 [3]): 34.9 ± 5.7 s⁻¹ | k cat/K m (PbPM4 [3]): 1.65e+07 ± 2.9e+06 M⁻¹ s⁻¹

CC(C)[C@H](NC(=O)[C@@H]1CCCN1C(=O)[C@@H](N)CCCCN)C(=O)N[C@@H](CCC(=O)O)C(=O)N[C@H](CN[C@@H](CCCNC(=N)N)C(=O)N[C@@H](CCC(N)=O)C(=O)N[C@H](C(=O)O)[C@@H](C)O)Cc1ccccc1 [Compound 4, KPVEFΨRQT]
Ki (PmPM4): 10.3 ± 1.3 nM | Ki (PoPM4): 39 ± 4.5 nM

CC(C)C[C@@H](CN[C@@H](CC(C)C)C(=O)N[C@@H](CCC(N)=O)C(=O)N[C@@H](Cc1ccccc1)C(=O)O)NC(=O)[C@H](CO)NC(=O)[C@H](Cc1ccccc1)NC(=O)[C@@H]1CCCN1C(=O)[C@@H](N)CCCCN [Compound 2, KPFSLΨLQF]
Ki (PoPM4): 767 ± 81 nM

CC(C)C[C@H](NC(=O)[C@@H]1CCCN1C(=O)[C@@H](N)CCCCN)C(=O)N[C@@H](CCC(=O)O)C(=O)N[C@H](CN[C@@H](Cc1ccc(O)cc1)C(=O)N[C@@H](CCCNC(=N)N)C(=O)N[C@H](C(=O)O)C(C)C)Cc1ccccc1 [Compound 6, KPLEFΨYRV]
Ki (PmPM4): 0.342 ± 0.047 nM | Ki (PoPM4): 3.2 ± 0.5 nM
